Earlier results, collected in patent EP1680106B1, “COMBINATION TREATMENT OF OBESITY INVOLVING 4,5-DIHYDRO-1H-PYRAZOLE DERIVATIVES HAVING CB1-ANTAGONISTIC ACTIVITY AND LIPASE INHIBITORS” (Solvay Pharmaceuticals GmbH, priority 2003, dated 2005).

Tests used:
[1] = atypical antipsychotics, follow-up studies
[2] = healthy male volunteers, 5 days with meals; ATL-962 50 mg to 300 mg, orlistat 120 mg tid; placebo 1.4 (+/-1.0)
[3] = test system: carragheenin-induced swelling; conditions: mice

Compound	weight gain with long-term treatment [1]	other results
Cc1nc2n(c(=O)c1CCN1CCC(c3noc4cc(F)ccc34)CC1)CCCC2 [Risperidone]	modest weight changes that are not dose related	
CN1CCN(C2=Nc3cc(Cl)ccc3Nc3ccccc32)CC1 [clozapine]	largest weight gains	
Cc1cc2c(s1)Nc1ccccc1N=C2N1CCN(C)CC1 [olanzapine]	largest weight gains	
OCCOCCN1CCN(C2=Nc3ccccc3Sc3ccccc32)CC1 [quetiapine]	smallest	
CCCCCCCCCCC[C@@H](C[C@@H]1OC(=O)[C@H]1CCCCCC)OC(=O)[C@H](CC(C)C)NC=O [tetrahydrolipstatin, (2S,3S,5S)-5-((S)-2-4-methylvaleryloxy)-2-hexyl-3-hydroxy-hexadecanoic acid lactone]		average fat excreted [2]: 5.6 (+/-3.8) g/day
O=C1Cc2cc(CCN3CCN(c4nsc5ccccc45)CC3)c(Cl)cc2N1 [ziprasidone]	smallest	
Ebelactone B		carragheenin-induced swelling [3]: reduces carragheenin-induced swelling
